Measurements published in PMC11383786, “Parallel evolution of methyltransferases leads to vobasine biosynthesis in Tabernaemontana elegans and Catharanthus roseus” (Frontiers in Plant Science, 2024).

Tested on: T1, TePeNMT (TeMT1)
T1 construct: N-terminal His-tag, codon optimized synthetic gene in pET30a(+) NotI/XhoI, E. coli BL21(DE3), Ni-NTA purified; no chloroplast transit peptide predicted
Test: Michaelis-Menten kinetics, LC-MS/MS detection of product vobasine
Format: biochemical, Tabernaemontana elegans
Conditions: 50 μM S-adenosylmethionine (saturating), 20 mM Tris pH 7.5, 30 °C, 5 min
Text: Michaelis-Menten kinetics, LC-MS/MS detection of product vobasine on TePeNMT (TeMT1)

**Q.** Which Km does the source give for `C/C=C1/CN[C@H]2Cc3c([nH]c4ccccc34)C(=O)C[C@@H]1[C@@H]2C(=O)OC` [perivine] here?
**A.** Its Km is 1.91 µM.
